Measured values published in US10189841B2, “Purinones as ubiquitin-specific protease 1 inhibitors” (Forma Therapeutics, Inc., priority 2015, dated 2019).

Biological target: USP1 (construct USP1 (I-785, GG670, 671AA)/UAF1 (I-677)-Flag) (Homo sapiens (Human), UniProt O94782, G670A/G671A)
Assay: Ubiquitin-Rhodamine 110 assay for USP1 activity
Type: biochemical
Settings: USP1/UAF1 25 pM, Ub-Rh110 25 nM, 30 min preincubation
Method in brief: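 Ub-Rh110 (25 nM, ≪Km) cleavage read at ex 485/em 535 in Tris pH 8.0, CaCl2, GSH, Prionex, Triton X-100. The screen used 10 µM compound, 100 pM USP1/UAF1 and 45 min at RT.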

USP1 (construct USP1 (I-785, GG670, 671AA)/UAF1 (I-677)-Flag), sequence (O94782 whole entry G670A/G671A): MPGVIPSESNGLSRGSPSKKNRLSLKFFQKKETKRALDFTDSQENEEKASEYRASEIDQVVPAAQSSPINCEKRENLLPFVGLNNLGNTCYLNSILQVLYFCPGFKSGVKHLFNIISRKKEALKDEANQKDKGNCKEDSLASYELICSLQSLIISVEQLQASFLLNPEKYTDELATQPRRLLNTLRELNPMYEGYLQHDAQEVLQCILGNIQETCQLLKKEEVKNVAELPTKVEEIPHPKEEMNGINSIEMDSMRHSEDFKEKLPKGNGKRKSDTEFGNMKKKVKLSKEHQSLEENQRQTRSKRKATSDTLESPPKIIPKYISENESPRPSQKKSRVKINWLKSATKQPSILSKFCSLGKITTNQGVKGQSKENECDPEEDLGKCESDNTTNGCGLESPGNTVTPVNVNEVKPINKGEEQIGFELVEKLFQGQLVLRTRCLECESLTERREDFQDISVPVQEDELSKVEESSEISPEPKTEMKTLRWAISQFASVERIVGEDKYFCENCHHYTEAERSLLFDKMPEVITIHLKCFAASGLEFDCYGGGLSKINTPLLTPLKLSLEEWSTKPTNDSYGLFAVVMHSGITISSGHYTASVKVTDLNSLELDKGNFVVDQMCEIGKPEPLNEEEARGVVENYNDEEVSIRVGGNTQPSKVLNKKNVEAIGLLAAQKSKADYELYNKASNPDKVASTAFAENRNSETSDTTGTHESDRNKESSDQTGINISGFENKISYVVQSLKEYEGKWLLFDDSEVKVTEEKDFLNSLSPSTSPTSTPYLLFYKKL
USP1 (construct USP1 (I-785, GG670, 671AA)/UAF1 (I-677)-Flag), sequence (Q8TAF3 whole entry partner): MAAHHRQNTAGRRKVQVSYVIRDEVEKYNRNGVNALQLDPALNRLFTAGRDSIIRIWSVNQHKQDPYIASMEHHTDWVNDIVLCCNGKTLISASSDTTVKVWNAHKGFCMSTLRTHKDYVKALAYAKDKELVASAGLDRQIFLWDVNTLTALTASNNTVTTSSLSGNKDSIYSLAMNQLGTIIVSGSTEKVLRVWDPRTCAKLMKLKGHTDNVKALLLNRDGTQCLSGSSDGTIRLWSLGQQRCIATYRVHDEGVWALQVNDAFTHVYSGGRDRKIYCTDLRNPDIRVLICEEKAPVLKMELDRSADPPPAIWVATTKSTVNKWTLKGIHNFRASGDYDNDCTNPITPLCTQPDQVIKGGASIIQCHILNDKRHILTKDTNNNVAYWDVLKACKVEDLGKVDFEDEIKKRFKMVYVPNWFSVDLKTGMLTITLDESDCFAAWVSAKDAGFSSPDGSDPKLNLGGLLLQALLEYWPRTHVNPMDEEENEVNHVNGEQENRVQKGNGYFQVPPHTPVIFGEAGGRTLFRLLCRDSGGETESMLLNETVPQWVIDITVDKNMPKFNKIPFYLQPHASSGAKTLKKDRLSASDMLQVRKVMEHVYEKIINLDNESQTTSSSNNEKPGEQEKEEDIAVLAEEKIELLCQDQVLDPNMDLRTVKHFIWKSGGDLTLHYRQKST

Which IC50 does the source give for `CC(O)c1ccccc1-c1ncc2[nH]c(=O)n(Cc3ccc(-c4nc(C(F)(F)F)cn4C)cc3)c2n1` (stereo not shown) [Compound I-544, 2-(2-(1-Hydroxyethyl)phenyl)-9-(4-(1-methyl-4-(trifluoromethyl)-1H-imidazol-2-yl)benzyl)-7,9-dihydro-8H-purin-8-one] here?
Its IC50 is 0.05 to 0.2 µM.
